In patent publication US9708314B2, “Heterocyclic amide compound” (NISSAN CHEMICAL INDUSTRIES, LTD., priority 2013, dated 2017):

Experiments:
Format in all cases: in vivo
[1] = test system: Monochoria vaginalis; assay: Test Example 1: herbicidal activity, application before weed generation in submerged conditions; settings: Application herbicide amount 320 g/ha; Seventeenth Table
Source text: (§1) [Test Example 1] Herbicidal Activity Test by Application Before Weed Generation in Submerged Conditions After alluvial soil was placed into 1/10000 are of Wagner pot, water was poured and mixed to form a submerged condition having a water depth of 4 cm. Seeds of Echinochloa oryzacola Vasing., Scirpus juncoides, and Monochoria vaginalis were sowed in a mixed manner in the above pot and thereafter 2.5 leaf stage Oryza sativa seedling was transplanted. On the day of sowing seeds, the emulsion agent containing the compound of the present invention prepared in accordance with Formulation Example 2 was diluted with water so as to be a predetermined herbicide amount and the diluted compound was applied to the surface of the water. The pot was placed in a greenhouse of 25° C. to 30° C. to grow plant. Three weeks after the herbicide application, effects on each plant were investigated in accordance with the following criteria. Criteria 5 Herbicidal ratio of 90% or more (almost completely withered) 4 Herbicidal ratio of 70% or more and less than 90% 3 Herbicidal ratio of 40% or more and less than 70% 2 Herbicidal ratio of 20% or more and less than 40% 1 Herbicidal ratio of 5% or more and less than 20% 0 Herbicidal ratio of 5% or less (almost no effect) A: Echinochloa oryzicola Vasing., B: Scirpus juncoides, C: Monochoria vaginalis, D: Leptochloa chinensis, E: Cyperus difformis, F: Digitaria ciliaris, G: Setaria viridis, H: Echinochloa crus-galli var. crus-galli, I: Avena fatua, J: Alopecurus myosuroides, K: Lolium multiflorum Lam., L: Apera spica-venti., M: Abutilon theophrasti, N: Amaranthus retroflexus, O: Chenopodium album, P: Stellaria media, Q: Galium spurium, R: Veronica persica, a: transplanted Oryza sativa, b: directly sowed Oryza sativa, c: Zea mays, d: Glycine max, e: Triticum aestivum, f: Beta vulgaris ssp. vulgaris, and g: Brassica campestris L. The application herbicide amount (g/ha) means an amount that a concentration is adjusted so that, when an application amount is converted into per hectare (1 ha), the herbicide is applied by the number of grams (g) of the described value.

[2] = test system: Scirpus juncoides; assay: as above; settings: Application herbicide amount 320 g/ha; Seventeenth Table
Source text: as §1

[3] = test system: Triticum aestivum; assay: Test Example 4: effect on crop by application to foliage (diluvial soil, plastic box); settings: application to foliage
Procedure, shortened: (§2)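 Read-out is a 0–5 visual grade of herbicidal ratio (5: ≥90%, almost withered; 0: ≤5%) taken three weeks after treatment. Compound was applied as a diluted emulsion to stem and leaf parts of 14-day greenhouse-grown plants (25° C. to 30° C.) at rates expressed as g/ha.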

[4] = test system: Zea mays; assay: as above; settings: application to foliage
Procedure, shortened: as §2

[5] = test system: directly sowed Oryza sativa; assay: as above; settings: application to foliage
Procedure, shortened: as §2

[6] = test system: Beta vulgaris ssp. vulgaris; assay: as above; settings: application to foliage
Procedure, shortened: as §2

[7] = test system: Brassica campestris L.; assay: as above; settings: application to foliage
Procedure, shortened: as §2

[8] = test system: Glycine max; assay: as above; settings: application to foliage
Procedure, shortened: as §2

[9] = test system: Galium spurium; assay: Test Example 4: herbicidal effect by application to foliage (diluvial soil, plastic box); settings: application to foliage
Source text: (§3) 5 Herbicidal ratio of 90% or more (almost completely withered) 4 Herbicidal ratio of 70% or more and less than 90% 3 Herbicidal ratio of 40% or more and less than 70% 2 Herbicidal ratio of 20% or more and less than 40% 1 Herbicidal ratio of 5% or more and less than 20% 0 Herbicidal ratio of 5% or less (almost no effect) [Test Example 4] Herbicidal Effect Test by Application to Foliage Sterilized diluvial soil was placed in a plastic box having a length of 21 cm, a width of 13 cm, and a depth of 7 cm. Each of the seeds of Digitaria ciliaris, Setaria viridis, Echinochloa crus-galli var. crus-galli, Avena fatua, Alopecurus myosuroides, Lolium multiflorum Lam., Apera spica-venti., Abutilon theophrasti, Amaranthus retroflexus, Chenopodium album, Stellaria media, Galium spurium, Veronica persica, Zea mays, Glycine max, Oryza sativa, Triticum aestivum, Beta vulgaris ssp. vulgaris, and Brassica campestris L. was sowed in a spot-like manner and was covered with the soil of about 1.5 cm thick. Thereafter, the plants were grown in the greenhouse of 25° C. to 30° C. After the plants were grown for 14 days, the emulsion agent containing the compound of the present invention prepared in accordance with Formulation Example 2 was diluted with water so as to be a predetermined herbicide amount and the diluted compound was uniformly applied to a stem and leaf part with a small-size spray. Three weeks after the herbicide application, effects on each plant were investigated in accordance with the criteria of Test Example 1. A: Echinochloa oryzicola Vasing., B: Scirpus juncoides, C: Monochoria vaginalis, D: Leptochloa chinensis, E: Cyperus difformis, F: Digitaria ciliaris, G: Setaria viridis, H: Echinochloa crus-galli var. crus-galli, I: Avena fatua, J: Alopecurus myosuroides, K: Lolium multiflorum Lam., L: Apera spica-venti., M: Abutilon theophrasti, N: Amaranthus retroflexus, O: Chenopodium album, P: Stellaria media, Q: Galium spurium, R: Veronica persica, a: transplanted Oryza sativa, b: directly sowed Oryza sativa, c: Zea mays, d: Glycine max, e: Triticum aestivum, f: Beta vulgaris ssp. vulgaris, and g: Brassica campestris L. The application herbicide amount (g/ha) means an amount that a concentration is adjusted so that, when an application amount is converted into per hectare (1 ha), the herbicide is applied by the number of grams (g) of the described value.

[10] = test system: Setaria viridis; assay: as above; settings: application to foliage
Source text: as §3

[11] = test system: Abutilon theophrasti; assay: as above; settings: application to foliage
Source text: as §3

[12] = test system: Digitaria ciliaris; assay: as above; settings: application to foliage
Source text: as §3

[13] = test system: Stellaria media; assay: as above; settings: application to foliage
Source text: as §3

[14] = test system: Echinochloa crus-galli var. crus-galli; assay: as above; settings: application to foliage
Source text: as §3

[15] = test system: Amaranthus retroflexus; assay: as above; settings: application to foliage
Source text: as §3

[16] = test system: Lolium multiflorum Lam.; assay: as above; settings: application to foliage
Source text: as §3

[17] = test system: Veronica persica; assay: as above; settings: application to foliage
Source text: as §3

[18] = test system: Avena fatua; assay: as above; settings: application to foliage
Source text: as §3

[19] = test system: Apera spica-venti.; assay: as above; settings: application to foliage
Source text: as §3

[20] = test system: Chenopodium album; assay: as above; settings: application to foliage
Source text: as §3

[21] = test system: Alopecurus myosuroides; assay: as above; settings: application to foliage
Source text: as §3

[22] = test system: transplanted Oryza sativa; assay: Test Example 1: effect on crop, application before weed generation in submerged conditions; settings: Application herbicide amount 320 g/ha; Seventeenth Table
Source text: as §1

[23] = test system: Cyperus difformis; assay: Test Example 3: herbicidal effect by application to foliage (Wagner pot, water depth 0.1-0.5 cm); settings: Nineteenth Table; application to foliage; application herbicide amount 320 g/ha
Source text: (§4) 5 Herbicidal ratio of 90% or more (almost completely withered) 4 Herbicidal ratio of 70% or more and less than 90% 3 Herbicidal ratio of 40% or more and less than 70% 2 Herbicidal ratio of 20% or more and less than 40% 1 Herbicidal ratio of 5% or more and less than 20% 0 Herbicidal ratio of 5% or less (almost no effect) [Test Example 3] Herbicidal Effect Test by Application to Foliage After alluvial soil was placed into 1/10000 are of Wagner pot, water was poured and mixed to form a condition having a water depth of 0.1 cm to 0.5 cm. Seeds of Echinochloa crus-galli var. crus-galli, Leptochloa chinensis, Cyperus difformis, and Oryza sativa were sowed and the pot was placed in the greenhouse of 25° C. to 30° C. to grow the plants. After the plants were grown for 14 days, the emulsion agent containing the compound of the present invention prepared in accordance with Formulation Example 2 was diluted with water so as to be a predetermined herbicide amount and the diluted compound was uniformly applied to a stem and leaf part with a small-size spray. Three weeks after the herbicide application, effects on each plant were investigated in accordance with the criteria of Test Example 1. A: Echinochloa oryzicola Vasing., B: Scirpus juncoides, C: Monochoria vaginalis, D: Leptochloa chinensis, E: Cyperus difformis, F: Digitaria ciliaris, G: Setaria viridis, H: Echinochloa crus-galli var. crus-galli, I: Avena fatua, J: Alopecurus myosuroides, K: Lolium multiflorum Lam., L: Apera spica-venti., M: Abutilon theophrasti, N: Amaranthus retroflexus, O: Chenopodium album, P: Stellaria media, Q: Galium spurium, R: Veronica persica, a: transplanted Oryza sativa, b: directly sowed Oryza sativa, c: Zea mays, d: Glycine max, e: Triticum aestivum, f: Beta vulgaris ssp. vulgaris, and g: Brassica campestris L. The application herbicide amount (g/ha) means an amount that a concentration is adjusted so that, when an application amount is converted into per hectare (1 ha), the herbicide is applied by the number of grams (g) of the described value.

[24] = test system: Leptochloa chinensis; assay: as above; settings: Nineteenth Table; application to foliage; application herbicide amount 320 g/ha
Source text: as §4

[25] = test system: Echinochloa crus-galli var. crus-galli; assay: as above; settings: Nineteenth Table; application to foliage; application herbicide amount 320 g/ha
Source text: as §4

[26] = application herbicide amount 320 g/ha

CC#Cc1nnc2c(C(=O)Nc3nnc(C)o3)ccc(C(F)(F)F)n12 [1-161]
C: Monochoria vaginalis (herbicidal effect grade) [1]: 0 (Herbicidal ratio of 5% or less (almost no effect))
B: Scirpus juncoides (herbicidal effect grade) [2]: 2 (Herbicidal ratio of 20% or more and less than 40%)
e: effect on crop, Triticum aestivum [3, 26]: 0 (Herbicidal ratio of 5% or less (almost no effect))
c: effect on crop, Zea mays [4, 26]: 0 (Herbicidal ratio of 5% or less (almost no effect))
b: effect on crop, directly sowed Oryza sativa [5, 26]: 0 (Herbicidal ratio of 5% or less (almost no effect))
f: effect on crop, Beta vulgaris ssp. vulgaris [6, 26]: 1 (Herbicidal ratio of 5% or more and less than 20%)
g: effect on crop, Brassica campestris L. [7, 26]: 0 (Herbicidal ratio of 5% or less (almost no effect))
d: effect on crop, Glycine max [8, 26]: 1 (Herbicidal ratio of 5% or more and less than 20%)
Q: herbicidal effect on Galium spurium [9, 26]: 0 (Herbicidal ratio of 5% or less (almost no effect))
G: herbicidal effect on Setaria viridis [10, 26]: 0 (Herbicidal ratio of 5% or less (almost no effect))
M: herbicidal effect on Abutilon theophrasti [11, 26]: 1 (Herbicidal ratio of 5% or more and less than 20%)
F: herbicidal effect on Digitaria ciliaris [12, 26]: 3 (Herbicidal ratio of 40% or more and less than 70%)
P: herbicidal effect on Stellaria media [13, 26]: 0 (Herbicidal ratio of 5% or less (almost no effect))
H: herbicidal effect on Echinochloa crus-galli var. crus-galli [14, 26]: 3 (Herbicidal ratio of 40% or more and less than 70%)
N: herbicidal effect on Amaranthus retroflexus [15, 26]: 0 (Herbicidal ratio of 5% or less (almost no effect))
K: herbicidal effect on Lolium multiflorum Lam. [16, 26]: 0 (Herbicidal ratio of 5% or less (almost no effect))
R: herbicidal effect on Veronica persica [17, 26]: 1 (Herbicidal ratio of 5% or more and less than 20%)
I: herbicidal effect on Avena fatua [18, 26]: 0 (Herbicidal ratio of 5% or less (almost no effect))
L: herbicidal effect on Apera spica-venti. [19, 26]: 0 (Herbicidal ratio of 5% or less (almost no effect))
O: herbicidal effect on Chenopodium album [20, 26]: 4 (Herbicidal ratio of 70% or more and less than 90%)
J: herbicidal effect on Alopecurus myosuroides [21, 26]: 0 (Herbicidal ratio of 5% or less (almost no effect))
a: transplanted Oryza sativa (effect on crop grade) [22]: 0 (Herbicidal ratio of 5% or less (almost no effect))

CCOC(=O)Cn1nnnc1NC(=O)c1ccc(C(F)(F)F)n2c(C(C)C)nnc12 [2-092]
effect on crop, e (Triticum aestivum) ([3]; 320 g/ha): 0 (Herbicidal ratio of 5% or less (almost no effect))
effect on crop, b (Zea mays) ([4]; 320 g/ha): 0 (Herbicidal ratio of 5% or less (almost no effect))
effect on crop, d (directly sowed Oryza sativa) ([5]; 320 g/ha): 1 (Herbicidal ratio of 5% or more and less than 20%)
effect on crop, f (Beta vulgaris ssp. vulgaris) ([6]; 320 g/ha): 3 (Herbicidal ratio of 40% or more and less than 70%)
effect on crop, g (Brassica campestris L.) ([7]; 320 g/ha): 0 (Herbicidal ratio of 5% or less (almost no effect))
effect on crop, c (Glycine max) ([8]; 320 g/ha): 0 (Herbicidal ratio of 5% or less (almost no effect))
E (herbicidal effect grade) [23]: 2 (Herbicidal ratio of 20% or more and less than 40%)
D (herbicidal effect grade) [24]: 3 (Herbicidal ratio of 40% or more and less than 70%)
H (herbicidal effect grade) [25]: 2 (Herbicidal ratio of 20% or more and less than 40%)
herbicidal effect, Q (Galium spurium) ([9]; 320 g/ha): 1 (Herbicidal ratio of 5% or more and less than 20%)
herbicidal effect, G (Setaria viridis) ([10]; 320 g/ha): 0 (Herbicidal ratio of 5% or less (almost no effect))
herbicidal effect, M (Abutilon theophrasti) ([11]; 320 g/ha): 1 (Herbicidal ratio of 5% or more and less than 20%)
herbicidal effect, F (Digitaria ciliaris) ([12]; 320 g/ha): 0 (Herbicidal ratio of 5% or less (almost no effect))
herbicidal effect, P (Stellaria media) ([13]; 320 g/ha): 3 (Herbicidal ratio of 40% or more and less than 70%)
herbicidal effect, H (Echinochloa crus-galli var. crus-galli) ([14]; 320 g/ha): 2 (Herbicidal ratio of 20% or more and less than 40%)
herbicidal effect, N (Amaranthus retroflexus) ([15]; 320 g/ha): 1 (Herbicidal ratio of 5% or more and less than 20%)
herbicidal effect, K (Lolium multiflorum Lam.) ([16]; 320 g/ha): 0 (Herbicidal ratio of 5% or less (almost no effect))
herbicidal effect, R (Veronica persica) ([17]; 320 g/ha): 1 (Herbicidal ratio of 5% or more and less than 20%)
herbicidal effect, I (Avena fatua) ([18]; 320 g/ha): 1 (Herbicidal ratio of 5% or more and less than 20%)
herbicidal effect, L (Apera spica-venti.) ([19]; 320 g/ha): 0 (Herbicidal ratio of 5% or less (almost no effect))
herbicidal effect, O (Chenopodium album) ([20]; 320 g/ha): 3 (Herbicidal ratio of 40% or more and less than 70%)
herbicidal effect, J (Alopecurus myosuroides) ([21]; 320 g/ha): 0 (Herbicidal ratio of 5% or less (almost no effect))
